Test system: 885512-296-R-J2-PDC complex spheroid growth, % test/control
Assay: Anticancer human tumor 885512-296-R-J2-PDC patient-derived breast carcinoma cell line growth inhibition [AhR]
Settings: for IC50: curve of first compound; for viability, T/C: stronger effect = lower value
Procedure, shortened: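 Complex tumor spheroids co-cultured with HUVEC and human MSC stroma; AhR antagonists tested in combination with standard-of-care and investigational agents. Top concentration at or near clinical Cmax (else 10 microM), half-log dilutions; growth expressed as percent test/control.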

[1] = second compound 0.1 µM, first compound 0.0316 µM
[2] = second compound 0.1 µM, first compound 0.1 µM
[3] = second compound 0.1 µM, first compound 0.316 µM
[4] = second compound 0.1 µM, first compound 1 µM
[5] = second compound 0.1 µM, first compound 3.16 µM
[6] = second compound 0.1 µM, first compound 10 µM
[7] = second compound 0.316 µM, first compound 0.0316 µM
[8] = second compound 0.316 µM, first compound 0.1 µM
[9] = second compound 0.316 µM, first compound 0.316 µM
[10] = second compound 0.316 µM, first compound 1 µM
[11] = second compound 0.316 µM, first compound 3.16 µM
[12] = second compound 0.316 µM, first compound 10 µM
[13] = second compound 1 µM, first compound 0.0316 µM
[14] = second compound 1 µM, first compound 0.1 µM
[15] = second compound 1 µM, first compound 0.316 µM
[16] = second compound 1 µM, first compound 1 µM
[17] = second compound 1 µM, first compound 3.16 µM
[18] = second compound 1 µM, first compound 10 µM
[19] = second compound 3.16 µM, first compound 0.0316 µM
[20] = second compound 3.16 µM, first compound 0.1 µM
[21] = second compound 3.16 µM, first compound 0.316 µM
[22] = second compound 3.16 µM, first compound 1 µM
[23] = second compound 3.16 µM, first compound 3.16 µM
[24] = second compound 3.16 µM, first compound 10 µM
[25] = second compound 10 µM, first compound 0.0316 µM
[26] = second compound 10 µM, first compound 0.1 µM
[27] = second compound 10 µM, first compound 0.316 µM
[28] = second compound 10 µM, first compound 1 µM
[29] = second compound 10 µM, first compound 3.16 µM
[30] = second compound 10 µM, first compound 10 µM
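Note: spheroids exposed to compounds for seven days.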

COc1cc(Nc2ncc3c(n2)-c2ccc(Cl)cc2C(c2c(F)cccc2OC)=NC3)ccc1C(=O)O + Cc1ccccc1N=Nc1ccc(NC(=O)c2ccnn2C)c(C)c1
IC50 (second compound 0.1 µM): 4100 nM
IC50 (second compound 0.316 µM): > 10000 nM
IC50 (second compound 1 µM): 5480 nM
IC50 (second compound 3.16 µM): 1980 nM
IC50 (second compound 10 µM): < 31.6 nM
viability, T/C [1]: 61.3%
viability, T/C [2]: 51.4%
viability, T/C [3]: 59.2%
viability, T/C [4]: 59.2%
viability, T/C [5]: 52.2%
viability, T/C [6]: 38.9%
viability, T/C [7]: 62.9%
viability, T/C [8]: 48.8%
viability, T/C [9]: 57.8%
viability, T/C [10]: 50.6%
viability, T/C [11]: 53.5%
viability, T/C [12]: 47.6%
viability, T/C [13]: 56.8%
viability, T/C [14]: 54.8%
viability, T/C [15]: 65.9%
viability, T/C [16]: 58.1%
viability, T/C [17]: 46.2%
viability, T/C [18]: 49%
viability, T/C [19]: 51.4%
viability, T/C [20]: 46.6%
viability, T/C [21]: 55%
viability, T/C [22]: 54.4%
viability, T/C [23]: 47.1%
viability, T/C [24]: 43.3%
viability, T/C [25]: 45.6%
viability, T/C [26]: 40.9%
viability, T/C [27]: 40.6%
viability, T/C [28]: 39.6%
viability, T/C [29]: 36.5%
viability, T/C [30]: 37.7%

Cn1ncnc1C1c2n[nH]c(=O)c3cc(F)cc(c23)NC1c1ccc(F)cc1 (stereo not given) + Cc1ccccc1N=Nc1ccc(NC(=O)c2ccnn2C)c(C)c1
IC50 (second compound 0.1 µM): 91.3 nM
IC50 (second compound 0.316 µM): > 100 nM
IC50 (second compound 1 µM): > 100 nM
IC50 (second compound 3.16 µM): > 100 nM
IC50 (second compound 10 µM): < 0.316 nM
viability, T/C (second compound 0.1 µM, first compound 0.000316 µM): 85.6%
viability, T/C (second compound 0.1 µM, first compound 0.001 µM): 99.2%
viability, T/C (second compound 0.1 µM, first compound 0.00316 µM): 89.9%
viability, T/C (second compound 0.1 µM, first compound 0.01 µM): 93%
viability, T/C [1]: 68.7%
viability, T/C [2]: 48.4%
viability, T/C (second compound 0.316 µM, first compound 0.000316 µM): 110%
viability, T/C (second compound 0.316 µM, first compound 0.001 µM): 94.5%
viability, T/C (second compound 0.316 µM, first compound 0.00316 µM): 86%
viability, T/C (second compound 0.316 µM, first compound 0.01 µM): 87.7%
viability, T/C [7]: 76.3%
viability, T/C [8]: 54.9%
viability, T/C (second compound 1 µM, first compound 0.000316 µM): 98.5%
viability, T/C (second compound 1 µM, first compound 0.001 µM): 82.9%
viability, T/C (second compound 1 µM, first compound 0.00316 µM): 96.6%
viability, T/C (second compound 1 µM, first compound 0.01 µM): 83.9%
viability, T/C [13]: 67.5%
viability, T/C [14]: 53.8%
viability, T/C (second compound 3.16 µM, first compound 0.000316 µM): 77.6%
viability, T/C (second compound 3.16 µM, first compound 0.001 µM): 87.5%
viability, T/C (second compound 3.16 µM, first compound 0.00316 µM): 93%
viability, T/C (second compound 3.16 µM, first compound 0.01 µM): 83.5%
viability, T/C [19]: 67.4%
viability, T/C [20]: 52.1%
viability, T/C (second compound 10 µM, first compound 0.000316 µM): 50.1%
viability, T/C (second compound 10 µM, first compound 0.001 µM): 49.9%
viability, T/C (second compound 10 µM, first compound 0.00316 µM): 46.5%
viability, T/C (second compound 10 µM, first compound 0.01 µM): 47.2%
viability, T/C [25]: 50.2%
viability, T/C [26]: 44.2%

NS(=O)(=O)OCC1CC(n2ccc3c(NC4CCc5ccccc54)ncnc32)CC1O (stereo not given) + Cc1ccccc1N=Nc1ccc(NC(=O)c2ccnn2C)c(C)c1
IC50 (second compound 0.1 µM): 94.9 nM
IC50 (second compound 0.316 µM): 90.1 nM
IC50 (second compound 1 µM): 88.2 nM
IC50 (second compound 3.16 µM): 80.5 nM
IC50 (second compound 10 µM): 57.6 nM
viability, T/C [1]: 93.2%
viability, T/C [2]: 47.9%
viability, T/C [3]: 16.2%
viability, T/C [4]: 6.95%
viability, T/C [5]: 4.75%
viability, T/C [6]: 5.39%
viability, T/C [7]: 94.9%
viability, T/C [8]: 45.5%
viability, T/C [9]: 14.1%
viability, T/C [10]: 6.56%
viability, T/C [11]: 4.96%
viability, T/C [12]: 5.27%
viability, T/C [13]: 96.5%
viability, T/C [14]: 44.2%
viability, T/C [15]: 16.7%
viability, T/C [16]: 7.31%
viability, T/C [17]: 5.64%
viability, T/C [18]: 6.16%
viability, T/C [19]: 84.5%
viability, T/C [20]: 42%
viability, T/C [21]: 14.1%
viability, T/C [22]: 6.49%
viability, T/C [23]: 4.75%
viability, T/C [24]: 5.47%
viability, T/C [25]: 67%
viability, T/C [26]: 34.3%
viability, T/C [27]: 13.7%
viability, T/C [28]: 4.96%
viability, T/C [29]: 3.85%
viability, T/C [30]: 4.91%

O=C(C=Cc1cccc(S(=O)(=O)Nc2ccccc2)c1)NO + Cc1ccccc1N=Nc1ccc(NC(=O)c2ccnn2C)c(C)c1
IC50 (second compound 0.1 µM): 871 nM
IC50 (second compound 0.316 µM): 1160 nM
IC50 (second compound 1 µM): 1090 nM
IC50 (second compound 3.16 µM): 773 nM
IC50 (second compound 10 µM): 33.8 nM
viability, T/C [1]: 84.5%
viability, T/C [2]: 82.9%
viability, T/C [3]: 67.6%
viability, T/C [4]: 45%
viability, T/C [5]: 27.8%
viability, T/C [6]: 7.04%
viability, T/C [7]: 86.4%
viability, T/C [8]: 85.8%
viability, T/C [9]: 80.8%
viability, T/C [10]: 47.8%
viability, T/C [11]: 30.6%
viability, T/C [12]: 7.44%
viability, T/C [13]: 88.2%
viability, T/C [14]: 85.5%
viability, T/C [15]: 68.9%
viability, T/C [16]: 51.4%
viability, T/C [17]: 29.8%
viability, T/C [18]: 7.53%
viability, T/C [19]: 73.8%
viability, T/C [20]: 73%
viability, T/C [21]: 67.5%
viability, T/C [22]: 40.6%
viability, T/C [23]: 28.2%
viability, T/C [24]: 6.85%
viability, T/C [25]: 51%
viability, T/C [26]: 46.8%
viability, T/C [27]: 41.9%
viability, T/C [28]: 32.5%
viability, T/C [29]: 27.6%
viability, T/C [30]: 7.31%
